What was measured:
cellular esterase(s) [1] = test: Ciclesonide pro-drug hydrolysis to des-CIC in equine airway (bronchioalveolar) organoid-derived transwells; type: in vitro ADME; settings: 50 μM or 500 μM Ciclesonide, over time
Excerpt: (§1) FIG. 10A-10E. Identification and quantification of Ciclesonide metabolites produced by equine airway and hepatic organoid-derived tissue systems. FIG. 10A includes the structure of Ciclesonide, which is a pro-drug that is metabolized in the lungs to the active form, desisobutyryl-Ciclesonide (des-CIC). FIG. 10B includes MS spectra showing representative fragmentation pattern of kinetic des-CIC conversion from CIC hydrolysis generated by equine bronchioalveolar organoid-derived transwells treated with pro-drug. FIGS. 10C-10D plot quantification of des-CIC metabolite produced by equine airway organoid-derived transwells treated with 50 μM (FIG. 10C) or 500 μM (FIG. 10D) Ciclesonide as a function of time. FIG. 10E plots quantification of des-CIC metabolite produced by equine hepatic organoid-derived transwells treated with 500 μM Ciclesonide as a function of time. […]
FIG. 10B, includes representative fragmentation pattern of kinetic des-CIC conversion from CIC hydrolysis generated by equine bronchioalveolar organoid-derived transwells treated with pro-drug. […] Quantification of des-CIC metabolite produced by equine airway organoid-derived transwells treated with 50 μM (FIG. 10C) or 500 μM (FIG. 10D) Ciclesonide over time. […]

cellular esterase(s) [2] = test: Ciclesonide pro-drug hydrolysis to des-CIC in equine hepatic organoid-derived transwells; type: in vitro ADME; settings: 500 μM Ciclesonide, over time
Excerpt: as §1
Apical samples were obtained from the transwell upper chamber containing the bronchioalveolar tissue; basolateral samples were obtained from the lower transwell chamber containing untreated medium. FIG. 10E includes the results of quantification of des-CIC metabolite produced by equine hepatic organoid-derived transwells treated with 500 μM Ciclesonide. […]

CYP3A89 = test system: CYP3A89
Excerpt: FIG. 5A-51I. Development of an equine intestine-on-a-chip. FIG. 5A: Schematic representation of equine intestine-on-a-chip, including the top view of the Emulate chip (left), and a vertical slice (right) showing the epithelial channel (1, blue), the microvasculature channel (2, pink), and microchannels populated by organoid-derived intestinal epithelial cells (3) and endothelial cells (4), separated by flexible, porous membrane coated by extracellular matrices (5). FIG. 5B: Brightfield image of an equine intestine-chip cultured for 12 days in the presence of fluid flow and stretch (30 μl/h flow, 10% strain, 0.2 Hz). FIG. 5C: High magnification, phase contrast image of the intestinal epithelium channel depicted in b. […] FIG. 5E: Intestinal epithelium height measured in situ over a 400 μm section of the intestine-chip depicted in b. […] FIG. 5G: qPCR analysis of transcripts associated with intestine cell differentiation in organ-chips compared to 3D enteroid culture. (FIG. 5H: Testosterone conversion by epithelial CYP3A89 in equine intestine-chips was monitored by LC-MS/MS. Graph depicts the percent conversion of testosterone to 6-hydroxytestosterone at two concentrations. Scale bar represents 100 μm in panels 5B, 5C, 5D, and 5F. Schematic in 5A adapted and modified from Kasendra et al., eLife 2020.
Finally, studies were performed to evaluate the suitability of intestine chips for drug metabolism and CYP3A89 (CYP3A4 homolog (24)) induction. For these experiments, we inoculated testosterone into the inlet reservoir for the epithelial channel, flowed the testosterone-containing media through the chip at a rate of 30 μl/h, and collected samples from the effluent chambers from both the epithelial and vasculature channels.

Compound | pro-drug hydrolysis to desisobutyryl-Ciclesonide (kinetics in words) (cellular esterase(s) [1]) | pro-drug hydrolysis to desisobutyryl-Ciclesonide (kinetics in words) (cellular esterase(s) [2]) | channel in which testosterone metabolites were detected (CYP3A89) | time by which CYP3A89-mediated conversion of testosterone to 6-hydroxytestosterone was revealed (CYP3A89; equine intestine-chip, flow 30 μl/h, effluent samples, post-treatment) | time of peak testosterone metabolism (CYP3A89; horse)
CC(C)C(=O)OCC(=O)[C@@]12O[C@H](C3CCCCC3)O[C@@H]1C[C@H]1[C@@H]3CCC4=CC(=O)C=C[C@]4(C)[C@H]3[C@@H](O)C[C@@]12C [Ciclesonide] | rapid and linear | rapid and linear | – | – | –
C[C@]12CC[C@H]3[C@@H](CCC4=CC(=O)CC[C@@]43C)[C@@H]1CC[C@@H]2O [testosterone] | – | – | detected only in the epithelial channel effluent | ≤ 1 h | roughly 3 h

Reference: US20220145265A1, “IN VITRO EQUINE MODEL SYSTEMS AND THEIR INTEGRATION INTO HORSE-ON-A-CHIP PLATFORM” (University of Kentucky Research Foundation, priority 2020, published 2022)
